Our source for the Km, k cat and k cat/Km values is ChEMBL document CHEMBL1135287, “Anisylazoformylarginine: a superior assay substrate for carboxypeptidase B type enzymes” (Bioorg Med Chem Lett, 2002).

The species entered for assay [1] is Sus scrofa. As to the kind of experiment: Kinetic constant in the presence of porcine carboxypeptidase B.
The species named for assay [2] is Sus scrofa. As to the kind of experiment: Specificity constant kcat/Km was obtained at pH of 7.9, 25 degree C by the porcine carboxypeptidase B.

In general, Km refers to the substrate concentration at which the rate is half of its maximum.

`COc1ccc(/N=N/C(=O)N[C@@H](CCCN=C(N)N)C(=O)O)cc1`: in assay [1], the Km is 44 µM and the k cat was found to be 44 s⁻¹. Also, the k cat/Km in assay [2] was determined as 1e+06 M⁻¹ s⁻¹.
